Laboratory results published in article PMC2696686 (Bioorganic & medicinal chemistry, 2009).

What was measured:
[1] = biological target: T1, rDAT (Rattus norvegicus, UniProt P23977); conditions: pattern previously seen; ref [7]; cited from earlier work
[2] = biological target: T2, hDAT (Homo sapiens, UniProt Q01959); assay: [3H]-WIN-35,428 binding inhibition in N2A neuroblastoma cells expressing hDAT
[3] = biological target: 6Xhis-hDAT (Homo sapiens, UniProt Q01959); conditions: 100 μM (−)-cocaine; HEK 293 cells expressing 6Xhis-hDAT
6Xhis-hDAT, sequence (Q01959 whole entry): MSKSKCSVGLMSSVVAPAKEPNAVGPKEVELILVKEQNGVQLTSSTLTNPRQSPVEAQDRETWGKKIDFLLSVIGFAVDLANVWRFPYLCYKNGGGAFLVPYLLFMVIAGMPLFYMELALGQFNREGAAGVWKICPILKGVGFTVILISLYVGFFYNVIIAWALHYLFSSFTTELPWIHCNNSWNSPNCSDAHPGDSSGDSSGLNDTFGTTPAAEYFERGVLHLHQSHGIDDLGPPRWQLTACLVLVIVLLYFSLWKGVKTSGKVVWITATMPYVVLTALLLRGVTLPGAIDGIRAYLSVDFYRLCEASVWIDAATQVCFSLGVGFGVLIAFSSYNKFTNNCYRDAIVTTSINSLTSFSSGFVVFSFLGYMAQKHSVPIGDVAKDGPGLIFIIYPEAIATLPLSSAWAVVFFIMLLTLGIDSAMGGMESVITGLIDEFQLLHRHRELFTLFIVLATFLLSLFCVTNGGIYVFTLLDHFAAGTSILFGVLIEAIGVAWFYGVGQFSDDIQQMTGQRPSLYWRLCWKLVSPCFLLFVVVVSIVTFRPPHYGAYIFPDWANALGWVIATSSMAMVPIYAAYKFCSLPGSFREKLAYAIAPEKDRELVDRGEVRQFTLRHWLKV

[4] = biological target: T1, rDAT; conditions: LLC-PK1 cells expressing rDAT
[5] = Storage stability of the radioligand by HPLC; assay type: physicochemical; conditions: 25 days at −20 °C in the dark; initial purity 99%
[6] = biological target: T2, hDAT; assay: [3H]-dopamine uptake inhibition in N2A neuroblastoma cells expressing hDAT; assay type: cell-based; conditions: uptake IC50 higher than binding Ki

T1 sequence (P23977 whole entry): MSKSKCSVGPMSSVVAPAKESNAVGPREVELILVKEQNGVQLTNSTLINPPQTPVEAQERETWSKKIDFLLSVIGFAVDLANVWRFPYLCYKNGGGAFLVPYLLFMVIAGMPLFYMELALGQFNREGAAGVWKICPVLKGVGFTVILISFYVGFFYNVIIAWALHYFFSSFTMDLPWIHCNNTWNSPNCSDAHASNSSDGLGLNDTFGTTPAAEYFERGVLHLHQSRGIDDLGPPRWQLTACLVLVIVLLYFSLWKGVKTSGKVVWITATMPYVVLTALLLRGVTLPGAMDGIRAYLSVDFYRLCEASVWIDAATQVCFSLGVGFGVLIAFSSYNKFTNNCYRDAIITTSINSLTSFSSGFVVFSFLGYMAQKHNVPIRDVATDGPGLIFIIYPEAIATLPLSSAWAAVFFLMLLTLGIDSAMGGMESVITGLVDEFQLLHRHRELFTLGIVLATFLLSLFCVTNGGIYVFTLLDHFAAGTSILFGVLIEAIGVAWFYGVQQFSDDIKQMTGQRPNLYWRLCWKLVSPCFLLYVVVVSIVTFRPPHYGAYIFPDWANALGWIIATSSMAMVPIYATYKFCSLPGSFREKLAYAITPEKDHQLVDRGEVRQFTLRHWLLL
T2 sequence (Q01959 whole entry): as the sequence (Q01959 whole entry) above

## C[C@@H]1CN(CCCn2c3ccccc3c3ccccc32)C[C@H](C)N1 [rimcazole]
[1]
  Binding versus uptake inhibition value (pattern): essentially the same value

## CCCC(C(=O)c1ccc(N=[N+]=[N-])c(I)c1)N1CCCC1 (stereo not drawn) [Compound 6, 1-(4-Azido-3-iodophenyl)-2-pyrrolidin-1-yl-pentan-1-one]
[2]; ratio of Ki values versus bupropion
  DAT affinity, fold higher than bupropion: 6 fold
[2]; ratio of Ki values versus pyrovalerone
  DAT affinity, fold less than pyrovalerone: 10 fold

## COC(=O)[C@H]1[C@@H](OC(=O)c2ccccc2)C[C@@H]2CC[C@H]1N2C [cocaine, reference compound]
[3]
  Effect on [125I]-6 photolabeling of DAT: blocked
[4]; 100 μM (−)-cocaine
  Effect on [125I]-6 photolabeling of DAT: blocked

## CCCC(C(=O)c1ccc(N=[N+]=[N-])c([125I])c1)N1CCCC1 (stereo not drawn) [[^125I]-6, [^125I]-1-(4-Azido-3-iodophenyl)-2-pyrrolidin-1-yl-pentan-1-one]
[5]
  Radiochemical purity after storage (stability): 92%
[4]; 30 nM radioligand, 1 h, 4°C, UV 254 nm, 45 s
  Incorporation into DAT on photoactivation (labeled protein of ~80 kDa): incorporation

## CN1[C@@H]2CC[C@H]1C[C@@H](OC(c1ccccc1)c1ccccc1)C2 [benztropine]
[1]
  Binding versus uptake inhibition value (pattern): essentially the same value

## CCCC(C(=O)c1ccc(N)cc1)N1CCCC1 (stereo not drawn) [Compound 8, 1-(4-Aminophenyl)-2-pyrrolidin-1-yl-pentan-1-one]
[6]
  Uptake inhibition IC50 relative to binding Ki: essentially the same value
